Drawing on patent US10568876B2, “Tetrahydroisoquinoline derivatives useful as inhibitors of diacylglyceride O-acyltransferase 2” (Merck Sharp & Dohme Corp., priority 2014, dated 2020), this text covers IC50 for 18 molecules.

Each structure is given as a SMILES string.

A word on the IC50: it is the concentration at which inhibition is half-maximal.

Sequence of hDGAT2 (Q96PD7 whole entry): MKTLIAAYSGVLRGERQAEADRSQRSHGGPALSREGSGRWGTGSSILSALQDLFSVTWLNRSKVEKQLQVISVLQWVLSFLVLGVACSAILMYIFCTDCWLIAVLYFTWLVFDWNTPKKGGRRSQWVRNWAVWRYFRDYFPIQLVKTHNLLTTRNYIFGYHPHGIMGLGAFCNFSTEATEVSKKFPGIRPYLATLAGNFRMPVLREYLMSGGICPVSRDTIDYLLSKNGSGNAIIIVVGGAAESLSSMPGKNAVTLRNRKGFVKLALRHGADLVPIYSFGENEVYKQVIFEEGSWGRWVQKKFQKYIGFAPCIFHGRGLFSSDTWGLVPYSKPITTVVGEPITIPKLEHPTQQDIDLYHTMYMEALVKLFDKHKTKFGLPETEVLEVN

This experiment has as its target hDGAT2 (Homo sapiens (Human), UniProt Q96PD7). Description: DGAT2 Enzymatic Activity Assay. The experiment is classed as biochemical. To be noted: hDGAT2 Sf-9 membrane prep; 25 μM diolein, 10 μM oleoyl-CoA; triolein product by LC/MS/MS; read-out: IC50 values for inhibition of DGAT2. In short, it runs like this: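 Membranes from Sf-9 cells expressing untagged hDGAT2 (10 ng/μL) incubated at room temperature with 25 μM diolein and 10 μM oleoyl-CoA in 100 mM Tris pH 7.0, 20 mM MgCl2, 5% ethanol. Triolein product quantified by LC/MS/MS against spiked internal standard; IC50 from 4-parameter sigmoidal fit.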
Consider `CC(=O)Nc1cccc(-c2ccc(CNC(=O)[C@@H]3C[C@H]3c3ccccc3)c3c2CCN(C(=O)NC(C)(C)C)C3)c1` (relative stereo) [Example 36, 5-(3-acetamidophenyl)-N-(tert-butyl)-8-(((trans)-2-phenylcyclopropanecarboxamido)methyl)-3,4-dihydroisoquinoline-2(1H)-carboxamide], for which the IC50 stood at 0.352 µM. Regarding `Cc1noc([C@@H]2C[C@H]2C(=O)NCc2ccc(-c3cccc(OC(F)(F)F)c3)c3c2CN(C(=O)NC2(C)COC2)CC3)n1` (relative stereo) [Example 67, 8-(((trans)-2-(3-methyl-1,2,4-oxadiazol-5-yl)cyclopropanecarboxamido)methyl)-N-(3-methyloxetan-3-yl)-5-(3-(trifluoromethoxy)phenyl)-3,4-dihydroisoquinoline-2(1H)-carboxamide], the IC50 came out at 0.0136 µM. As for `CC(C)(C)NC(=O)N1CCc2c(-c3cccc(OC(F)(F)F)c3)ccc(CNC(=O)C3CC3c3cccnc3)c2C1` (stereo not drawn) [Example 4, N-(tert-butyl)-8-((2-(pyridin-3-yl)cyclopropanecarboxamido)methyl)-5-(3-(trifluoromethoxy)phenyl)-3,4-dihydroisoquinoline-2(1H)-carboxamide], the IC50 stood at 0.0117 µM. To `COC(=O)c1cccc(-c2ccc(CNC(=O)C3CC34CCCCC4)c3c2CCN(C(=O)NC(C)(C)C)C3)c1` (stereo not drawn) [Example 17, methyl 3-(2-(tert-butylcarbamoyl)-8-((spiro[2.5]octane-1-carboxamido)methyl)-1,2,3,4-tetrahydroisoquinolin-5-yl)benzoate] belongs 0.0022 µM; to `COC(=O)c1cccc(-c2ccc(CNC(=O)C3CC3c3ccccc3)c3c2CCN(CCC(F)(F)F)C3)c1` (stereo not drawn) [Example 100, methyl 3-(8-((2-phenylcyclopropanecarboxamido)methyl)-2-(3,3,3-trifluoropropyl)-1,2,3,4-tetrahydroisoquinolin-5-yl)benzoate], 3.47 µM; to `CC(C)(C)NC(=O)N1CCc2c(-c3cncc(C(F)(F)F)c3)ccc(CNC(=O)[C@@H]3C[C@H]3c3ccccc3)c2C1` (relative stereo) [Example 47, N-(tert-butyl)-8-(((trans)-2-phenylcyclopropanecarboxamido)methyl)-5-(5-(trifluoromethyl)pyridin-3-yl)-3,4-dihydroisoquinoline-2(1H)-carboxamide], 0.173 µM. As for `Cc1noc([C@@H]2C[C@H]2C(=O)NCc2ccc(-c3cccc(C(F)(F)F)c3)c3c2CN(C(=O)Nc2cccnc2)CC3)n1` (relative stereo) [Example 6, 8-(((trans)-2-(3-methyl-1,2,4-oxadiazol-5-yl)cyclopropanecarboxamido)methyl)-N-(pyridin-3-yl)-5-(3-(trifluoromethyl)phenyl)-3,4-dihydroisoquinoline-2(1H)-carboxamide], the IC50 was 0.101 µM.

Turning to `Cc1noc(C2CC2C(=O)NCc2ccc(-c3cccc(-n4cccn4)c3)c3c2CN(C(=O)N[C@@]2(C)CCS(=O)(=O)C2)CC3)n1` (stereo partly drawn) [Example 79, 5-(3-(1H-pyrazol-1-yl)phenyl)-N-((S)-3-methyl-1,1-dioxidotetrahydrothiophen-3-yl)-8-((2-(3-methyl-1,2,4-oxadiazol-5-yl)cyclopropanecarboxamido)methyl)-3,4-dihydroisoquinoline-2(1H)-carboxamide], the IC50 was found to be 0.098 µM. To `CC(C)(C)NC(=O)N1CCc2c(-c3cccc(C#N)c3)ccc(CNC(=O)[C@@H]3C[C@H]3c3ccccc3)c2C1` (relative stereo) [Example 22, N-(tert-butyl)-5-(3-cyanophenyl)-8-(((trans)-2-phenylcyclopropanecarboxamido)methyl)-3,4-dihydroisoquinoline-2(1H)-carboxamide] belongs 0.0161 µM; to `COc1cccc(-c2ccc(CNC(=O)C3CC3c3ccccc3)c3c2CCN(Cc2ccccc2)C3)c1` (stereo not drawn) [Example 90, N-((2-benzyl-5-(3-methoxyphenyl)-1,2,3,4-tetrahydroisoquinolin-8-yl)methyl)-2-phenylcyclopropanecarboxamide], 4.85 µM.

For `Cc1noc(C2CC2C(=O)NCc2ccc(-c3cccc(OC(F)(F)F)c3)c3c2CN(CC(N)=O)CC3)n1` (stereo not drawn) [Example 83, N-((2-(2-amino-2-oxoethyl)-5-(3-(trifluoromethoxy)phenyl)-1,2,3,4-tetrahydroisoquinolin-8-yl)methyl)-2-(3-methyl-1,2,4-oxadiazol-5-yl)cyclopropanecarboxamide], the half-maximal inhibitory concentration (IC50) was determined as 1.24 µM. To `CC(C)(C)NC(=O)N1CCc2c(-c3cccc(-n4nccn4)c3)ccc(CNC(=O)[C@@H]3C[C@H]3c3ccccc3)c2C1` (relative stereo) [Example 48, 5-(3-(2H-1,2,3-triazol-2-yl)phenyl)-N-(tert-butyl)-8-(((trans)-2-phenylcyclopropanecarboxamido)methyl)-3,4-dihydroisoquinoline-2(1H)-carboxamide] belongs 0.0976 µM; to `COc1cccc(-c2ccc(CNC(=O)[C@@H]3C[C@H]3c3ccccc3)c3c2CCN(C(=O)NC2COC2)C3)c1` (relative stereo) [Example 74, 5-(3-methoxyphenyl)-N-(oxetan-3-yl)-8-(((trans)-2-phenylcyclopropanecarboxamido)methyl)-3,4-dihydroisoquinoline-2(1H)-carboxamide], 0.0898 µM; to `COc1cccc(-c2ccc(CNC(=O)[C@@H]3C[C@H]3c3nc(C)no3)c3c2CCN(C(=O)NC(C)(C)C)C3)c1` (relative stereo) [Example 11, N-(tert-butyl)-5-(3-methoxyphenyl)-8-(((trans)-2-(3-methyl-1,2,4-oxadiazol-5-yl)cyclopropanecarboxamido)methyl)-3,4-dihydroisoquinoline-2(1H)-carboxamide], 0.003 µM.

Consider `Cc1noc(C2CC2C(=O)NCc2ccc(-c3cccc(OC(F)(F)F)c3)c3c2CN(CC(=O)N[C@H](C)c2ccccc2)CC3)n1` (stereo partly drawn) [Example 88, 2-(3-methyl-1,2,4-oxadiazol-5-yl)-N-((2-(2-oxo-2-(((trans)-1-phenylethyl)amino)ethyl)-5-(3-(trifluoromethoxy)phenyl)-1,2,3,4-tetrahydroisoquinolin-8-yl)methyl)cyclopropanecarboxamide], for which the IC50 was 7.6 µM.

As to `COC(=O)c1cccc(-c2ccc(CNC(=O)C3CC3c3ccccc3)c3c2CCN(C(=O)CC2CC2)C3)c1` (stereo not drawn) [Example 125, methyl 3-(2-(2-cyclopropylacetyl)-8-((2-phenylcyclopropanecarboxamido)methyl)-1,2,3,4-tetrahydroisoquinolin-5-yl)benzoate], the IC50 was determined as 0.209 µM. In the case of `CC(C)(C)NC(=O)N1CCc2c(-c3cccc(C(=O)NC4CC4)c3)ccc(CNC(=O)[C@@H]3C[C@H]3c3ccccc3)c2C1` (relative stereo) [Example 38, N-(tert-butyl)-5-(3-(cyclopropylcarbamoyl)phenyl)-8-(((trans)-2-phenylcyclopropanecarboxamido)methyl)-3,4-dihydroisoquinoline-2(1H)-carboxamide], the IC50 is 1.43 µM. On to `CC(C)(C)NC(=O)N1CCc2c(-c3ccc4ncnn4c3)ccc(CNC(=O)[C@@H]3C[C@H]3c3ccccc3)c2C1` (relative stereo) [Example 29, 5-([1,2,4]triazolo[1,5-a]pyridin-6-yl)-N-(tert-butyl)-8-(((trans)-2-phenylcyclopropanecarboxamido)methyl)-3,4-dihydroisoquinoline-2(1H)-carboxamide], for which the IC50 worked out at 4.64 µM.
